Measurements reported in patent publication US8765773B2, “Substituted hydroxamic acids and uses thereof” (Millennium Pharmaceuticals, Inc., priority 2010, dated 2014).

What follows are compounds tested against T1, purified human HDAC6 (Homo sapiens, UniProt Q9UBN7) (assay: HDAC6 Enzyme Assay). Conditions: compound concentration 0.37 μM, read-out: Percent Inhibition.
T1 construct: purchased BPS Bioscience 5006
T1 sequence (Q9UBN7 1-1215): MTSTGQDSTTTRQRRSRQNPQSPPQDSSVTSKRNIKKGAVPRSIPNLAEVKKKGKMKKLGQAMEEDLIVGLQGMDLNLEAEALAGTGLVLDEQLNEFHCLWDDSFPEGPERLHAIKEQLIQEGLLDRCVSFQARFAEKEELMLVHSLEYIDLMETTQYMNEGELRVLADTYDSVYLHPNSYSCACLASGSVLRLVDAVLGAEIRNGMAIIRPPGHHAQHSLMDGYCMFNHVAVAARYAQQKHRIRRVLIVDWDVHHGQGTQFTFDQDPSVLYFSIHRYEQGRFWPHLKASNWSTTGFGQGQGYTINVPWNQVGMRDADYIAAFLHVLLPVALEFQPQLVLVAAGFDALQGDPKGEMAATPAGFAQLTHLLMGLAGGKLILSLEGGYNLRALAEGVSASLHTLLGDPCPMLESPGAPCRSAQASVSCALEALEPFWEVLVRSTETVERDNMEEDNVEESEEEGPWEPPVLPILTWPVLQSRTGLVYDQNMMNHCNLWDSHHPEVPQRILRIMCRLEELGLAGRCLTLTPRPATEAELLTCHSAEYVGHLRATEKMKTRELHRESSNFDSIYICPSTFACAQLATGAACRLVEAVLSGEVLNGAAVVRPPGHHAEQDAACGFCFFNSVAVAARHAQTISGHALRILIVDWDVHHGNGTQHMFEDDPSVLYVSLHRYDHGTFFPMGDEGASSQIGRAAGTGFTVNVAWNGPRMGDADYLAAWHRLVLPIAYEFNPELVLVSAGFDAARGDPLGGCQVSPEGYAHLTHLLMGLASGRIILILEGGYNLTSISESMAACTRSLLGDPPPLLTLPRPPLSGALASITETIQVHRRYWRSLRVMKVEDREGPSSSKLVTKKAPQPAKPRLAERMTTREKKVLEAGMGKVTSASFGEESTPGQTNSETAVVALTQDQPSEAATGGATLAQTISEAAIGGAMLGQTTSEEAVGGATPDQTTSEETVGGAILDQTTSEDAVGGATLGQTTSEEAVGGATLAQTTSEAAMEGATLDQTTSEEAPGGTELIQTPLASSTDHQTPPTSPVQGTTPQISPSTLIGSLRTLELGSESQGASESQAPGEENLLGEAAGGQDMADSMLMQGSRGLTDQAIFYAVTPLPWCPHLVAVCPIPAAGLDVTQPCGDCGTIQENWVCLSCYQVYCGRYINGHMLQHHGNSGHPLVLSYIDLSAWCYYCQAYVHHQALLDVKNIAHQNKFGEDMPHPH
Type: biochemical
Description: To measure the inhibition of HDAC6 activity, purified human HDAC6 (BPS Bioscience; Cat. No. 5006) is incubated with substrate Ac-Arg-Gly-Lys(Ac)-AMC peptide (Bachem Biosciences; Cat. No. I-1925) for 1 hour at 30° C. in the presence of test compounds or vehicle DMSO control. The reaction is stopped with the HDAC inhibitor trichostatin A (Sigma; Cat. No. T8552) and the amount of Arg-Gly-Lys-AMC generated is quantitated by digestion with trypsin (Sigma; Cat. No. T1426) and subsequent measurement of the amount of AMC released using a fluorescent plate reader (Pherastar; BMG Technologies) set at Ex 340 nm and Em 460 nm. Concentration response curves are generated by calculating the fluorescence increase in test compound-treated samples relative to DMSO-treated controls, and percentage inhibition values at a single concentration or enzyme inhibition (IC50) values are determined from those curves. One skilled in the art will appreciate that the values generated either as percentage inhibition at a single concentration or IC50 values are subject to experimental variation.

SMILES | inhibition at 0.37 µM
CC(C)(C)OC(=O)N1CCC(C(CCn2ccc3ccc(C(=O)NO)cc3c2=O)c2ccc(Cl)cc2)CC1 (stereo not drawn) [Compound I-205, tert-butyl 4-{1-(4-chlorophenyl)-3-[7-[(hydroxyamino)carbonyl]-1-oxoisoquinolin-2(1H)-yl]propyl}piperidine-1-carboxylate] | 89.5%
O=C(NO)c1ccc2ncn(CCNCc3cccc(-n4cccn4)c3)c(=O)c2c1 [Compound I-332, N-hydroxy-4-oxo-3-(2-{[3-(1H-pyrazol-1-yl)benzyl]amino}ethyl)-3,4-dihydroquinazoline-6-carboxamide] | 90.4%
Cc1ncc(-c2nc3cc(C(=O)NO)ccc3c(=O)[nH]2)n1C [Compound I-403, 2-(1,2-dimethyl-1H-imidazol-5-yl)-N-hydroxy-4-oxo-3,4-dihydroquinazoline-7-carboxamide] | -4.61%
O=C(NO)c1ccc2ncn(CCc3cccc(-c4ccccc4C(F)(F)F)c3)c(=O)c2c1 [Compound I-325, N-hydroxy-4-oxo-3-{2-[2′-(trifluoromethyl)biphenyl-3-yl]ethyl}-3,4-dihydroquinazoline-6-carboxamide] | 42.1%
O=C(NO)c1ccc2ncn(CCc3cccc(-c4cccc(OC(F)(F)F)c4)c3)c(=O)c2c1 [Compound I-312, N-hydroxy-4-oxo-3-{2-[3′-(trifluoromethoxy)biphenyl-3-yl]ethyl}-3,4-dihydroquinazoline-6-carboxamide] | 76.2%
O=C(NO)c1ccc2ncn(CCc3cccc(-c4ccc(C(F)(F)F)cc4)c3)c(=O)c2c1 [Compound I-295, N-hydroxy-4-oxo-3-{2-[4′-(trifluoromethyl)biphenyl-3-yl]ethyl}-3,4-dihydroquinazoline-6-carboxamide] | 72.5%
O=C(NO)c1ccc2c(=O)[nH]c(-c3cccc(-c4ccncc4)c3)nc2c1 [Compound I-396, N-hydroxy-4-oxo-2-(3-pyridin-4-ylphenyl)-3,4-dihydroquinazoline-7-carboxamide] | 62.3%
O=C(NO)c1ccc2c(=O)n(Cc3ccc(C(F)(F)F)cc3)c(C3CCCC3)nc2c1 [Compound I-106, 2-cyclopentyl-N-hydroxy-4-oxo-3-[4-(trifluoromethyl)benzyl]-3,4-dihydroquinazoline-7-carboxamide] | 78.5%
CC(C)(C)C(=O)Nc1ncccc1-c1cccc(Cn2cnc3ccc(C(=O)NO)cc3c2=O)c1 [Compound I-230, 3-(3-{2-[(2,2-dimethylpropanoyl)amino]pyridin-3-yl}benzyl)-N-hydroxy-4-oxo-3,4-dihydroquinazoline-6-carboxamide] | 92.4%
O=C(NO)c1ccc2c(=O)[nH]c(-c3nc4ccccc4o3)nc2c1 [Compound I-404, 2-(1,3-benzoxazol-2-yl)-N-hydroxy-4-oxo-3,4-dihydroquinazoline-7-carboxamide] | 5.79%
O=C(NO)c1ccc2ncn(CCc3cccc(-c4c(F)cccc4F)c3)c(=O)c2c1 [Compound I-347, 3-[2-(2′,6′-difluorobiphenyl-3-yl)ethyl]-N-hydroxy-4-oxo-3,4-dihydroquinazoline-6-carboxamide] | 63.7%
O=C(NO)c1ccc2ccn(CCN(C(=O)C3CC3)c3cccc(-n4cccn4)c3)c(=O)c2c1 [Compound I-45, 2-(2-{(cyclopropylcarbonyl)[3-(1H-pyrazol-1-yl)phenyl]amino}ethyl)-N-hydroxy-1-oxo-1,2-dihydroisoquinoline-7-carboxamide] | 89.6%
O=C(NO)c1ccc2ncn(CCc3cccc(-c4c(Cl)cccc4Cl)c3)c(=O)c2c1 [Compound I-313, 3-[2-(2′,6′-dichlorobiphenyl-3-yl)ethyl]-N-hydroxy-4-oxo-3,4-dihydroquinazoline-6-carboxamide] | 73.2%

Same assay, conditions: compound concentration 0.412 μM, read-out: Percent Inhibition

SMILES | inhibition at 0.412 µM
Cn1c(NCc2ccncc2)nc2cc(C(=O)NO)ccc2c1=O [Compound I-47, N-hydroxy-3-methyl-4-oxo-2-[(pyridin-4-ylmethyl)amino]-3,4-dihydroquinazoline-7-carboxamide] | 44.2%
O=C(NO)c1ccc2ccn(Cc3cccc(F)c3)c(=O)c2c1 [Compound I-109, 2-(3-fluorobenzyl)-N-hydroxy-1-oxo-1,2-dihydroisoquinoline-7-carboxamide] | 95.9%
CC(C)(C)OC(=O)Nc1cccc(Cn2ccc3ccc(C(=O)NO)cc3c2=O)c1 [Compound I-266, tert-butyl (3-{[7-[(hydroxyamino)carbonyl]-1-oxoisoquinolin-2(1H)-yl]methyl}phenyl)carbamate] | 87.9%
O=C(NO)c1ccc2ccn(CC3CC3)c(=O)c2c1 [Compound I-261, 2-(cyclopropylmethyl)-N-hydroxy-1-oxo-1,2-dihydroisoquinoline-7-carboxamide] | 87.5%
O=C(NO)c1ccc2ncn(Cc3ccc(C(F)(F)F)cc3)c(=O)c2c1 [Compound I-30, N-hydroxy-4-oxo-3-[4-(trifluoromethyl)benzyl]-3,4-dihydroquinazoline-6-carboxamide] | 93.6%
O=C(NO)c1ccc2ccn(CCCc3c[nH]c4ccccc34)c(=O)c2c1 [Compound I-95, N-hydroxy-2-[3-(1H-indol-3-yl)propyl]-1-oxo-1,2-dihydroisoquinoline-7-carboxamide] | 98.1%
COc1ccc2ccc(OCCCn3ccc4ccc(C(=O)NO)cc4c3=O)cc2c1 [Compound I-231, N-hydroxy-2-{3-[(7-methoxy-2-naphthyl)oxy]propyl}-1-oxo-1,2-dihydroisoquinoline-7-carboxamide] | 94.8%
CCCC(C)n1ccc2ccc(C(=O)NO)cc2c1=O (stereo not drawn) [Compound I-44, N-hydroxy-2-(1-methylbutyl)-1-oxo-1,2-dihydroisoquinoline-7-carboxamide] | 91.8%
CS(=O)(=O)c1ccccc1OCc1nc2cc(C(=O)NO)ccc2c(=O)[nH]1 [Compound I-249, N-hydroxy-2-{[2-(methylsulfonyl)phenoxy]methyl}-4-oxo-3,4-dihydroquinazoline-7-carboxamide] | 56.5%
Cc1ccc(OCCCn2ccc3ccc(C(=O)NO)cc3c2=O)cc1 [Compound I-197, N-hydroxy-2-[3-(4-methylphenoxy)propyl]-1-oxo-1,2-dihydroisoquinoline-7-carboxamide] | 96.5%
O=C(NO)c1ccc2c(=O)n(CCCc3ccccc3)cnc2c1 [Compound I-74, N-hydroxy-4-oxo-3-(3-phenylpropyl)-3,4-dihydroquinazoline-7-carboxamide] | 94.8%
O=C(NO)c1ccc2ccn(CCN(Cc3cccc(C(F)(F)F)c3)Cc3cccc(C(F)(F)F)c3)c(=O)c2c1 [Compound I-253, 2-(2-{bis[3-(trifluoromethyl)benzyl]amino}ethyl)-N-hydroxy-1-oxo-1,2-dihydroisoquinoline-7-carboxamide] | 57.5%
O=C(NO)c1ccc2ccn(CCc3cccc4ccccc34)c(=O)c2c1 [Compound I-251, N-hydroxy-2-[2-(1-naphthyl)ethyl]-1-oxo-1,2-dihydroisoquinoline-7-carboxamide] | 96.6%
O=C(NO)c1ccc2c(=O)[nH]c(COc3cccc(C(F)(F)F)c3)nc2c1 [Compound I-110, N-hydroxy-4-oxo-2-{[3-(trifluoromethyl)phenoxy]methyl}-3,4-dihydroquinazoline-7-carboxamide] | 76%
